Among the data in patent US12723063B2, “GIPR-agonist compounds” (Eli Lilly and Company, priority 2019, dated 2026) are EC50 values, retold here.

SMILES strings stand for the structures. *1 amine or outer side, *2 acyl side, *3 side chain or, on linkers, in order; H or OH if unused. Where a SMILES comes first, the peptide text is derived from it. Side-chain parts run from the residue outwards. [ ]: non-standard residue; d: D form. The star is where a group is joined. C20 diacid = O=C(O)CCCCCCCCCCCCCCCCCCC(=O)*; αMePhe(2-F) = C[C@](N)(Cc1ccccc1F)C(=O)O; γGlu = O=C(O)[C@H](CCC(=O)[*:2])N[*:1]; αMeF = C[C@](N)(Cc1ccccc1)C(=O)O; 4Pal = N[C@@H](Cc1ccncc1)C(=O)O; αMeL = CC(C)C[C@](C)(N)C(=O)O; AEEA = NCCOCCOCC(=O)O; Aib = CC(C)(N)C(=O)O

What all share (test): cAMP functional assay (HTRF) in HEK293 cells in presence of 0.1% casein
Common to all, as to assay type: cell-based

Assay [1] has as its target T1, human GLP-1 receptor (GLP-1R) (Homo sapiens, UniProt P43220).
T1 construct: expressed in transfected cells; host or cells: HEK293
To be noted: HEK293 cells expressing human GLP-1R, geometric mean, read-out: hGLP1R cAMP Rel EC50 nM (SEM, n).

Assay [2] deals with T2, human glucose-dependent insulinotropic peptide receptor (GIPR) (Homo sapiens, UniProt P48546).
T2 construct: expressed in transfected cells; host or cells: HEK293
T2 sequence (P48546 22-466): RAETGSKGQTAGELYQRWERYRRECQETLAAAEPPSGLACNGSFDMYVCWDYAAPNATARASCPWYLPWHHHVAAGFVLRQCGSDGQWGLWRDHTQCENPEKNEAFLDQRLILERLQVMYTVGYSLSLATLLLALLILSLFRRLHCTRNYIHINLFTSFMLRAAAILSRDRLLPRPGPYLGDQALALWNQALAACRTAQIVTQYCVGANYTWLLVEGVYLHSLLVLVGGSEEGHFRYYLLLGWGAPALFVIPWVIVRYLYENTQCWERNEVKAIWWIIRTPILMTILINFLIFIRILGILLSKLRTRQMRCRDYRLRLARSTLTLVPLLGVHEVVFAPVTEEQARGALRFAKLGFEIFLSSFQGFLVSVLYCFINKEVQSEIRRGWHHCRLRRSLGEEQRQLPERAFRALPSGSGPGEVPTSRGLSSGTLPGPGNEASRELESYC
The settings on record: HEK293 cells expressing human GIPR, geometric mean, read-out: hGIPR cAMP Rel EC50 nM (SEM, n).

The target of assay [3] is T3, human glucagon receptor (GcgR) (Homo sapiens, UniProt P47871).
T3 construct: expressed in transfected cells; host or cells: HEK293
The settings on record: HEK293 cells expressing human GcgR, geometric mean, read-out: hGcgR cAMP Rel EC50 nM (SEM, n).

T1 sequence (P43220 24-463): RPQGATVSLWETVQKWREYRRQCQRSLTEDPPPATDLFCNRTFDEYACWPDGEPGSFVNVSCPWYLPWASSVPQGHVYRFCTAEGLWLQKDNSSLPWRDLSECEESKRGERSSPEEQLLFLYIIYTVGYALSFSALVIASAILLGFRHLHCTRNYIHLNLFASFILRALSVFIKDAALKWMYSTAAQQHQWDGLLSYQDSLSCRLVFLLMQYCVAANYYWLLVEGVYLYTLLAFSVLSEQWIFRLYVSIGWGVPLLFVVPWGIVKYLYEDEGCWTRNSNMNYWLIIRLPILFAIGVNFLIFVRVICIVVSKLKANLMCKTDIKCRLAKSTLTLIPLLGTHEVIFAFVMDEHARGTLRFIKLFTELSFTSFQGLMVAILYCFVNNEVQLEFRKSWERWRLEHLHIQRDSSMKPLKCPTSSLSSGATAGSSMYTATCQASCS
T3 sequence (P47871 26-477): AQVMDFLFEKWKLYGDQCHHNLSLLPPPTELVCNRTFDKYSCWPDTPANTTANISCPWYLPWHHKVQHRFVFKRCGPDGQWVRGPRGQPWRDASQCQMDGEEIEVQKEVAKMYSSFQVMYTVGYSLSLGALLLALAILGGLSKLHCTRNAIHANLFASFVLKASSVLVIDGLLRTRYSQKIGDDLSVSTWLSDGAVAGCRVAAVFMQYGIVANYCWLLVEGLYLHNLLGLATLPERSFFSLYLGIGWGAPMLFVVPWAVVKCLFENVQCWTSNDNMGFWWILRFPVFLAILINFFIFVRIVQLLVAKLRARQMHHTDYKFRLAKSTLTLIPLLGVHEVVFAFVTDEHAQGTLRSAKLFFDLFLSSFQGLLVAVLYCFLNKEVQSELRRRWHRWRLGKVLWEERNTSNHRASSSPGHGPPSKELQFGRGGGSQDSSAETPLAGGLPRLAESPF

Regarding `CC[C@H](C)[C@H](NC(=O)[C@H](Cc1ccccc1)NC(=O)[C@@H](NC(=O)CNC(=O)[C@H](CCC(=O)O)NC(=O)C(C)(C)NC(=O)[C@@H](N)Cc1ccc(O)cc1)[C@@H](C)O)C(=O)N[C@@H](CO)C(=O)N[C@@H](CC(=O)O)C(=O)N[C@@H](Cc1ccc(O)cc1)C(=O)N[C@@H](CO)C(=O)N[C@H](C(=O)N[C@@](C)(CC(C)C)C(=O)N[C@@H](CC(C)C)C(=O)N[C@@H](CC(=O)O)C(=O)N[C@@H](CCCCN)C(=O)N[C@@H](CCCCNC(=O)COCCOCCNC(=O)COCCOCCNC(=O)CC[C@H](NC(=O)CCCCCCCCCCCCCCCCC(=O)O)C(=O)O)C(=O)N[C@@H](Cc1c[nH]cn1)C(=O)N[C@@H](CCC(N)=O)C(=O)NC(C)(C)C(=O)N[C@@H](CC(=O)O)C(=O)N[C@@H](Cc1ccccc1)C(=O)N[C@H](C(=O)N[C@@H](CCC(=O)O)C(=O)N[C@@H](Cc1ccncc1)C(=O)N[C@@H](CC(C)C)C(=O)N[C@@H](CC(C)C)C(=O)N[C@@H](C)C(=O)NCC(=O)NCC(=O)N1CCC[C@H]1C(=O)N[C@@H](CO)C(=O)N[C@@H](CO)C(=O)NCC(=O)N[C@@H](C)C(=O)N1CCC[C@H]1C(=O)N1CCC[C@H]1C(=O)N1CCC[C@H]1C(=O)N[C@@H](CO)C(N)=O)C(C)C)[C@@H](C)CC` [Example 49], the EC50 (commonly the concentration needed to bring the measured effect to its halfway point) in assay [1] was > 5000 nM; in assay [2], 0.0156 nM; in assay [3], 2860 nM.

Regarding `CC[C@H](C)[C@H](NC(=O)[C@H](CO)NC(=O)[C@H](Cc1ccc(O)cc1)NC(=O)[C@H](CC(=O)O)NC(=O)[C@H](CO)NC(=O)[C@@H](NC(=O)[C@](C)(Cc1ccccc1)NC(=O)[C@@H](NC(=O)CNC(=O)[C@H](CCC(=O)O)NC(=O)C(C)(C)NC(=O)[C@@H](N)Cc1ccc(O)cc1)[C@@H](C)O)[C@@H](C)CC)C(=O)N[C@@](C)(CC(C)C)C(=O)N[C@@H](CC(C)C)C(=O)N[C@@H](CC(=O)O)C(=O)N[C@@H](CCCCN)C(=O)N[C@@H](CCCCNC(=O)COCCOCCNC(=O)COCCOCCNC(=O)CC[C@H](NC(=O)CCCCCCCCCCCCCCCCCCC(=O)O)C(=O)O)C(=O)N[C@@H](Cc1c[nH]cn1)C(=O)N[C@@H](CCC(N)=O)C(=O)NC(C)(C)C(=O)N[C@@H](CC(=O)O)C(=O)N[C@@H](Cc1ccccc1)C(=O)N[C@H](C(=O)N[C@@H](CCC(=O)O)C(=O)N[C@@H](Cc1ccncc1)C(=O)N[C@@H](CC(C)C)C(=O)N[C@@H](CC(C)C)C(=O)N[C@@H](C)C(=O)NCC(=O)NCC(=O)N1CCC[C@H]1C(=O)N[C@@H](CO)C(=O)N[C@@H](CO)C(=O)NCC(=O)N[C@@H](C)C(=O)N1CCC[C@H]1C(=O)N1CCC[C@H]1C(=O)N1CCC[C@H]1C(=O)N[C@@H](CO)C(N)=O)C(C)C` [Example 50] (H-Y[Aib]EGT[αMeF]ISDYSI[αMeL]LDKK([AEEA-AEEA-γGlu-C20 diacid])HQ[Aib]DFVE[4Pal]LLAGGPSSGAPPPS-NH2), the 50% effective concentration (EC50) in assay [1] turned out to be 41 nM; in assay [2] it was 0.0212 nM; in assay [3], 371 nM.

For the compound `CC[C@H](C)[C@H](NC(=O)[C@H](CO)NC(=O)[C@H](Cc1ccc(O)cc1)NC(=O)[C@H](CC(=O)O)NC(=O)[C@H](CO)NC(=O)[C@@H](NC(=O)[C@](C)(Cc1ccccc1F)NC(=O)[C@@H](NC(=O)CNC(=O)[C@H](CCC(=O)O)NC(=O)C(C)(C)NC(=O)[C@@H](N)Cc1ccc(O)cc1)[C@@H](C)O)[C@@H](C)CC)C(=O)N[C@@](C)(CC(C)C)C(=O)N[C@@H](CC(C)C)C(=O)N[C@@H](CC(=O)O)C(=O)N[C@@H](CCCCN)C(=O)N[C@@H](CCCCNC(=O)COCCOCCNC(=O)COCCOCCNC(=O)CC[C@H](NC(=O)CCCCCCCCCCCCCCCCCCC(=O)O)C(=O)O)C(=O)N[C@@H](Cc1c[nH]cn1)C(=O)N[C@@H](CCC(N)=O)C(=O)NC(C)(C)C(=O)N[C@@H](CC(=O)O)C(=O)N[C@@H](Cc1ccccc1)C(=O)N[C@H](C(=O)N[C@@H](CCC(=O)O)C(=O)N[C@@H](Cc1ccncc1)C(=O)N[C@@H](CC(C)C)C(=O)N[C@@H](CC(C)C)C(=O)N[C@@H](C)C(=O)NCC(=O)NCC(=O)N1CCC[C@H]1C(=O)N[C@@H](CO)C(=O)N[C@@H](CO)C(=O)NCC(=O)N[C@@H](C)C(=O)N1CCC[C@H]1C(=O)N1CCC[C@H]1C(=O)N1CCC[C@H]1C(=O)N[C@@H](CO)C(N)=O)C(C)C` [Example 51] (H-Y[Aib]EGT[αMePhe(2-F)]ISDYSI[αMeL]LDKK([AEEA-AEEA-γGlu-C20 diacid])HQ[Aib]DFVE[4Pal]LLAGGPSSGAPPPS-NH2), the EC50 in assay [1] worked out at 24.7 nM; in assay [2] it was 0.0166 nM; in assay [3], 308 nM.

For the compound `CC[C@H](C)[C@H](NC(=O)[C@H](Cc1ccccc1)NC(=O)[C@@H](NC(=O)CNC(=O)[C@H](CCC(=O)O)NC(=O)C(C)(C)NC(=O)[C@@H](N)Cc1ccc(O)cc1)[C@@H](C)O)C(=O)N[C@@H](CO)C(=O)N[C@@H](CC(=O)O)C(=O)N[C@@H](Cc1ccc(O)cc1)C(=O)N[C@@H](CO)C(=O)N[C@H](C(=O)N[C@@](C)(CC(C)C)C(=O)N[C@@H](CC(C)C)C(=O)N[C@@H](CC(=O)O)C(=O)N[C@@H](CCCCN)C(=O)N[C@@H](CCCCNC(=O)COCCOCCNC(=O)COCCOCCNC(=O)CC[C@H](NC(=O)CCCCCCCCCCCCCCCCCCC(=O)O)C(=O)O)C(=O)N[C@@H](Cc1c[nH]cn1)C(=O)N[C@@H](CCC(N)=O)C(=O)NC(C)(C)C(=O)N[C@@H](CCC(=O)O)C(=O)N[C@@H](Cc1ccccc1)C(=O)N[C@H](C(=O)N[C@@H](CCC(=O)O)C(=O)N[C@@H](Cc1ccncc1)C(=O)N[C@@H](CC(C)C)C(=O)N[C@@H](CC(C)C)C(=O)N[C@@H](C)C(=O)NCC(=O)NCC(=O)N1CCC[C@H]1C(=O)N[C@@H](CO)C(=O)N[C@@H](CO)C(=O)NCC(=O)N[C@@H](C)C(=O)N1CCC[C@H]1C(=O)N1CCC[C@H]1C(=O)N1CCC[C@H]1C(=O)N[C@@H](CO)C(N)=O)C(C)C)[C@@H](C)CC` [Example 52], the results for the EC50 in assay [1], in assay [2] and in assay [3] were > 5000 nM, 0.0194 nM and 337 nM, respectively.

In the case of `CC[C@H](C)[C@H](NC(=O)[C@H](Cc1ccccc1)NC(=O)[C@@H](NC(=O)CNC(=O)[C@H](CCC(=O)O)NC(=O)C(C)(C)NC(=O)[C@@H](N)Cc1ccc(O)cc1)[C@@H](C)O)C(=O)N[C@@H](CO)C(=O)N[C@@H](CC(=O)O)C(=O)N[C@@H](Cc1ccc(O)cc1)C(=O)N[C@@H](CO)C(=O)N[C@H](C(=O)N[C@@](C)(CC(C)C)C(=O)N[C@@H](CC(C)C)C(=O)N[C@@H](CC(=O)O)C(=O)N[C@@H](CCCCN)C(=O)N[C@@H](CCCCNC(=O)COCCOCCNC(=O)COCCOCCNC(=O)CC[C@H](NC(=O)CCCCCCCCCCCCCCCCCCC(=O)O)C(=O)O)C(=O)N[C@@H](Cc1c[nH]cn1)C(=O)N[C@@H](CCC(N)=O)C(=O)NC(C)(C)C(=O)N[C@@H](CC(=O)O)C(=O)N[C@@H](Cc1ccccc1)C(=O)N[C@H](C(=O)N[C@@H](CCC(=O)O)C(=O)N[C@@H](Cc1ccc(O)cc1)C(=O)N[C@@H](CC(C)C)C(=O)N[C@@H](CC(C)C)C(=O)N[C@@H](C)C(=O)NCC(=O)NCC(=O)N1CCC[C@H]1C(=O)N[C@@H](CO)C(=O)N[C@@H](CO)C(=O)NCC(=O)N[C@@H](C)C(=O)N1CCC[C@H]1C(=O)N1CCC[C@H]1C(=O)N1CCC[C@H]1C(=O)N[C@@H](CO)C(N)=O)C(C)C)[C@@H](C)CC` [Example 53] (H-Y[Aib]EGTFISDYSI[αMeL]LDKK([AEEA-AEEA-γGlu-C20 diacid])HQ[Aib]DFVEYLLAGGPSSGAPPPS-NH2), the EC50 is > 5000 nM in assay [1], 0.0194 nM in assay [2] and 344 nM in assay [3].

Turning to `CC[C@H](C)[C@H](NC(=O)[C@H](Cc1ccccc1)NC(=O)[C@@H](NC(=O)CNC(=O)[C@H](CCC(=O)O)NC(=O)C(C)(C)NC(=O)[C@@H](N)Cc1ccc(O)cc1)[C@@H](C)O)C(=O)N[C@@H](CO)C(=O)N[C@@H](CC(=O)O)C(=O)N[C@@H](Cc1ccc(O)cc1)C(=O)N[C@@H](CO)C(=O)N[C@H](C(=O)N[C@@](C)(CC(C)C)C(=O)N[C@@H](CC(C)C)C(=O)N[C@@H](CC(=O)O)C(=O)N[C@@H](CCCCN)C(=O)N[C@@H](CCCCNC(=O)COCCOCCNC(=O)COCCOCCNC(=O)CC[C@H](NC(=O)CCCCCCCCCCCCCCCCCCC(=O)O)C(=O)O)C(=O)N[C@@H](Cc1c[nH]cn1)C(=O)N[C@@H](CCC(N)=O)C(=O)NC(C)(C)C(=O)N[C@@H](CC(=O)O)C(=O)N[C@@H](Cc1ccccc1)C(=O)N[C@H](C(=O)N[C@@H](CCC(=O)O)C(=O)N[C@@H](Cc1c[nH]c2ccccc12)C(=O)N[C@@H](CC(C)C)C(=O)N[C@@H](CC(C)C)C(=O)N[C@@H](C)C(=O)NCC(=O)NCC(=O)N1CCC[C@H]1C(=O)N[C@@H](CO)C(=O)N[C@@H](CO)C(=O)NCC(=O)N[C@@H](C)C(=O)N1CCC[C@H]1C(=O)N1CCC[C@H]1C(=O)N1CCC[C@H]1C(=O)N[C@@H](CO)C(N)=O)C(C)C)[C@@H](C)CC` [Example 54] (H-Y[Aib]EGTFISDYSI[αMeL]LDKK([AEEA-AEEA-γGlu-C20 diacid])HQ[Aib]DFVEWLLAGGPSSGAPPPS-NH2), the EC50 in assay [1] was > 5000 nM; in assay [2], 0.054 nM; in assay [3], > 5000 nM.
